Experimental data reported in PMC7083565, “In vitro metabolism, reaction phenotyping, enzyme kinetics, CYP inhibition and induction potential of ataluren” (Pharmacology Research & Perspectives, 2020).
Like-named read-outs stand apart in the source and are kept apart here.

Legend:
[1] = test system: CYP2C8; assay: CYP induction in primary human hepatocytes: CYP2C8; assay type: in vitro ADME; conditions: male, 48 h
Procedure: Human hepatocytes isolated from three Caucasian males were transferred to 48‐well collagen‐coated plates at 0.14 × 10^6 cells/well in planting media for attachment. After attachment, planting media was replaced with sandwich media and the cells were incubated until clusters were established. […] The incubation solutions were aspirated and replaced with freshly prepared incubation solutions containing ataluren for an additional 24 hours. […] The incubation solutions were then aspirated and 150 µL of K‐H buffer containing CYP substrates were added. […] Metabolite formation in incubations with test compounds and control inhibitors was assessed with validated LC‐MS/MS methods for each of the reaction products as described in Table S2. Enzymatic activity for each CYP was calculated using the absolute amount of metabolite formed (pmol) divided by hepatocytes in the incubation (million cells) and the incubation time (minute). The relative fold induction in enzymatic activity was calculated by comparing the rate of metabolite formation for treatment groups to that of the solvent control group (reported as vehicle control%) or positive control group (reported as positive control%).

[2] = test system: UGT (glucuronidation); assay: Ataluren glucuronidation kinetics, human liver microsomes; assay type: in vitro ADME; conditions: human, pooled human liver microsomes, pH 7.5, HLM, read-out: CLint,u,UGT
Procedure: (§1) Ataluren at 0.5, 2.5, 12.5, 25, 50, 100, 200, and 400 µmol/L, was incubated (n = 3) at 37°C with recombinant human UGT1A9 and with pooled microsomes from human liver, kidney, and intestine (0.025 mg protein/mL, preactivated with alamethicin at 20 µg/mL) in Tris‐HCl buffer (0.1 mol/L, pH 7.5), in the presence of 1 mmol/L EDTA, 5 mmol/L MgCl2, with or without 0.5%, 1%, or 2% BSA. The incubation (100 µL final volume with 0.5% DMSO) was started by adding an equal volume of UDPGA (5 mmol/L) in Tris‐HCl buffer (0.1 mol/L, pH 7.5). After 30 minutes incubation, the incubation mixtures were combined with 0.3 mL of an internal standard solution in acetonitrile with 1% formic acid, followed by membrane plate filtration. The filtrates were used for LC‐MS/MS analysis to quantify the formation of ataluren‐O‐1β‐acyl glucuronide. Detailed LC‐MS/MS conditions are summarized in LC‐MS/MS Analysis section. Ataluren acyl glucuronide formation rate after 30 minutes incubation was calculated using the amount of metabolite formed (pmol) divided by the protein amount in the incubation sample (0.0025 mg) and the incubation time (30 minutes). Ataluren glucuronidation kinetic parameters were determined with and without adjusting BSA binding by nonlinear regression (GraphPad Prism, 5version 5.04, GraphPad Software, Inc.) using Michaelis‐Menten equation which was the best fit compared with other models. The intrinsic clearance was calculated as CLint = Vmax/Km. In order to compare unbound intrinsic clearance by glucuronidation (CLint,u,UGT) in different tissues, CLint,u,UGT was expressed per gram of tissue by correcting the values for the microsomal protein yield, resulting in scaled CLint,u,UGT. Microsomal protein yields of 40.0, 12.8, and 20.6 mg protein/g tissue were used for hepatic, renal, and intestinal data, respectively. ^26
(§2) The high‐throughput membrane ultrafiltration method ^27 was used to determine the fraction unbound in the incubation (n = 3). Incubation mixtures and procedures were essentially the same as the above except that UDPGA (5 mmol/L) was replaced with Tris‐HCl buffer (0.1 mol/L, pH 7.5). After 15 minutes incubation, aliquot was transferred to a Millipore Multiscreen Ultracel‐10 filter plate (10 kDa molecular mass cut off; EMD Millipore). The plate was centrifuged at 37°C and 3710 g. After 30 minutes centrifugation, aliquots of ultrafiltrates and incubation mixtures prior to ultrafiltration were quenched with an internal standard solution in acetonitrile, followed by membrane plate filtration. The filtrates were used for LC‐MS/MS analysis to quantify the concentration of ataluren. The same LC‐MS/MS conditions described above are summarized in LC‐MS/MS Analysis section. The free fraction = Cu/Cm, where Cu is the concentration of ataluren in the ultrafiltrate and Cm is the concentration of ataluren in the incubation system before centrifugation. Unbound Km (Km, u) was recalculated by applying Michaelis‐Menten equation using free ataluren concentrations after correcting BSA binding at each ataluren and BSA concentration level.
(§3) Quantification of ataluren‐O‐1β‐acyl glucuronide formation was conducted on an Accela pump and a PAL autosampler equipped with a TSQ Quantum Ultra mass spectrometer (Thermo Fisher Scientific). A Waters Acquity BEH column (C18, 1.7 µm, 50 × 2.1 mm; Waters Cooperation) was used and maintained at 50°C. The mobile phases were 0.1% formic acid in water (A) and acetonitrile (B). The flow rate was 0.6 mL/min and gradient program was as follows: linear gradient from 0% B to 95% B in 0.5 minutes and hold isocratic at 95% B for 1 minute; linear gradient from 95% B to 0% B in 0.1 minutes and hold isocratic at 0% B for 0.4 minutes. TSQ Quantum Ultra mass spectrometer was equipped with a heated electrospray ionization source operated in negative‐ion mode with a vaporizer temperature of 350°C, capillary temperature of 380°C, and spray voltage of 3 kV. […]

[3] = test system: CYP1A2; assay: CYP induction in primary human hepatocytes: CYP1A2; conditions: Phenacetin O-deethylase, 48 hours, n=3
[4] = Ataluren glucuronidation kinetics, human intestinal microsomes; assay type: in vitro ADME; conditions: for CLint,u,UGT (scaled) / K m / K m, u / V max: HIM; for CLint,u,UGT (scaled): 20.6 mg protein/g tissue; for K m / K m, u / V max: mean ± SE; for K m / K m, u / V max / fraction unbound at 15 min: n = 3; for fraction unbound at 15 min / microsomal CLint: human, pH 7.5, HIM; for fraction unbound at 15 min: pooled human intestinal microsomes incubation mixture, mean ± SD, read-out: fu,inc; for microsomal CLint: pooled human intestinal microsomes, read-out: CLint,u,UGT
Procedure: as §1, §2, §3

With `O=C(O)c1cccc(-c2noc(-c3ccccc3F)n2)c1` [ataluren, Ataluren] the “Vehicle control %, Mean” value ([1]; 4 µM) was 93.0%, the “Vehicle control %, Mean” value ([1]; 400 µM) was 67.6% and the microsomal CLint ([2]; 0% BSA) was 40.3 µL/min/mg. The microsomal CLint ([2]; 0.5% BSA) was 326 µL/min/mg, the microsomal CLint ([2]; 1% BSA) was 421 µL/min/mg and the microsomal CLint ([2]; 2% BSA) was 313 µL/min/mg. For the same molecule, the “Positive control %, Mean” value ([3]; ataluren 4 µM) was 1.32%, the “Positive control %, Mean” value ([3]; ataluren 40 µM) was 1.24% and the “Vehicle control %, Mean” value ([3]; ataluren 40 µM) was 116%. The “Positive control %, Mean” value ([3]; ataluren 400 µM) was 0.087%, the “Vehicle control %, Mean” value ([3]; ataluren 400 µM) was 100% and the “CLint,u,UGT (scaled)” value ([4]; 0% BSA) was 0.974 mL/min/g of tissue. For the same molecule, the K m ([4]; 0% BSA) was 15.8 ± 3.35 µM, the “K m, u” value ([4]; 0% BSA) was 15.8 ± 3.10 µM and the V max ([4]; 0% BSA) was 747 ± 32.7 pmol/min/mg. The “CLint,u,UGT (scaled)” value ([4]; 0.5% BSA) was 3.38 mL/min/g of tissue, the K m ([4]; 0.5% BSA) was 43.8 ± 6.88 µM and the “K m, u” value ([4]; 0.5% BSA) was 4.03 ± 0.646 µM. For the same molecule, the V max ([4]; 0.5% BSA) was 660 ± 28.3 pmol/min/mg, the “CLint,u,UGT (scaled)” value ([4]; 1% BSA) was 3.64 mL/min/g of tissue and the K m ([4]; 1% BSA) was 82.4 ± 11.3 µM. For the same molecule, the “K m, u” value ([4]; 1% BSA) was 4.02 ± 0.544 µM, the V max ([4]; 1% BSA) was 711 ± 31.2 pmol/min/mg and the “CLint,u,UGT (scaled)” value ([4]; 2% BSA) was 3.39 mL/min/g of tissue. For the same molecule, the K m ([4]; 2% BSA) was 145 ± 22.0 µM, the “K m, u” value ([4]; 2% BSA) was 4.74 ± 0.835 µM and the V max ([4]; 2% BSA) was 767 ± 54.6 pmol/min/mg. For the same molecule, the “maximal effect of BSA on CLint,u (increase)” value ([4]; human intestine microsomes, with vs without BSA) was roughly 3.7 fold, the fraction unbound at 15 min ([4]; 0% BSA) was 1 ± 0.137 and the fraction unbound at 15 min ([4]; 0.5% BSA) was 0.1 ± 0.0021. The fraction unbound at 15 min ([4]; 1% BSA) was 0.056 ± 0.002, the fraction unbound at 15 min ([4]; 2% BSA) was 0.036 ± 0.002 and the microsomal CLint ([4]; 0% BSA) was 47.3 µL/min/mg. It also gave a microsomal CLint ([4]; 0.5% BSA) of 164 µL/min/mg, a microsomal CLint ([4]; 1% BSA) of 177 µL/min/mg and a microsomal CLint ([4]; 2% BSA) of 164 µL/min/mg.
